Data as given in US20160194299A1 (priority 2013, published 2016).
Converted amounts (≈) assume the structure as drawn.

Key:
Mtb [1] = assay: microbe, parasite or virus in culture; assay type: cell-based, Mycobacterium tuberculosis; conditions: Mycobacterium tuberculosis, read-out: MIC (II)
in vitro = conditions: human
Mtb [2] = assay: microbe, parasite or virus in culture; assay type: cell-based, Mycobacterium tuberculosis
Mtb [3] = assay: microbe, parasite or virus in culture; assay type: cell-based, Mycobacterium tuberculosis; remark: listed apart in the source

| Compound | MIC (Mtb [1]) [µg/mL] | CC50 (in vitro) [µg/mL] | LC50 (IV) (Vero cells) | MIC (I) (Mtb [2]) | MIC (III) (Mtb [3]) |
| --- | --- | --- | --- | --- | --- |
| CCOC(=O)NC(=O)c1ccsc1NC(=O)c1cccc(NC(C)=O)c1 [Compound 3] | 1 to 3 (≈ 2.66 to 7.99 µM) | > 50 |  |  |  |
| CCOC(=O)NC(=O)c1ccsc1NC(=O)c1ccnc(NC(=O)OC(C)C)c1 [Compound 4] | 1 to 3 (≈ 2.38 to 7.14 µM) | > 50 |  |  |  |
| CCOC(=O)NC(=O)c1ccsc1NC(=O)c1cc2ccccn2n1 [Compound 11] | 1 to 3 (≈ 2.79 to 8.37 µM) | > 50 |  |  |  |
| CCOC(=O)NC(=O)c1ccsc1NC(=O)c1ccnc(-n2cnnn2)c1 [Compound 12] | 1 to 3 (≈ 2.58 to 7.74 µM) | > 50 |  |  |  |
| O=C(NC(=O)c1ccsc1NC(=O)c1nc2ccccc2s1)OCCF [Compound 20] |  |  | C (key: A: >50 μg/mL; B: 50-25 μg/mL; C: <25 μg/mL) | A (key: A: <1 μg/mL; B: 1-3 μg/mL; C: >3 μg/mL) |  |
| CCOC(=O)NC(=O)c1ccsc1NC(=O)c1n[nH]c2cc(C)ccc12 [Compound 120] |  |  | A (key: A: >50 μg/mL; B: 50-25 μg/mL; C: <25 μg/mL) | C (key: A: <1 μg/mL; B: 1-3 μg/mL; C: >3 μg/mL) | C (key: A: <5 μg/mL; B: 5-25 μg/mL; C: >25 μg/mL) |
| CCOC(=O)NC(=O)c1ccsc1NC(=O)c1n[nH]c2cc(C#N)ccc12 [Compound 128] |  |  | A (key: A: >50 μg/mL; B: 50-25 μg/mL; C: <25 μg/mL) | C (key: A: <1 μg/mL; B: 1-3 μg/mL; C: >3 μg/mL) | C (key: A: <5 μg/mL; B: 5-25 μg/mL; C: >25 μg/mL) |
| CCOC(=O)NC(=O)c1ccsc1NC(=O)c1n[nH]c2cc(Cl)ccc12 [Compound 134] |  |  | A (key: A: >50 μg/mL; B: 50-25 μg/mL; C: <25 μg/mL) | C (key: A: <1 μg/mL; B: 1-3 μg/mL; C: >3 μg/mL) | C (key: A: <5 μg/mL; B: 5-25 μg/mL; C: >25 μg/mL) |
| CCOC(=O)NC(=O)c1ccsc1NC(=O)c1nc(=O)[nH]c2ccccc12 [Compound 141] |  |  | A (key: A: >50 μg/mL; B: 50-25 μg/mL; C: <25 μg/mL) | C (key: A: <1 μg/mL; B: 1-3 μg/mL; C: >3 μg/mL) | C (key: A: <5 μg/mL; B: 5-25 μg/mL; C: >25 μg/mL) |
| CCOC(=O)NC(=O)c1ccsc1NC(=O)c1cn2c(-c3ccc(C(F)(F)F)cc3)cnc2cn1 [Compound 202] | > 3 |  |  |  |  |
| CCOC(=O)NC(=O)c1ccsc1NC(=O)c1ccc(Oc2ccc(F)cc2)cc1 [Compound 203] | > 3 |  |  |  |  |
| CCOC(=O)NC(=O)c1ccsc1NC(=O)c1ccc2c(c1)nc(C(F)(F)F)n2C(C)C [Compound 204] | > 3 |  |  |  |  |
| CC(=O)Nc1cc(C(=O)Nc2sccc2C(=O)N(C)C)ccn1 [Compound 205] | > 3 |  |  |  |  |
| CCOCCOCCOC(=O)NC(=O)c1ccsc1NC(=O)c1nc2ccccc2s1 [Compound 206] | > 3 |  |  |  |  |
| CCOC(=O)NC(=O)c1ccsc1NC(=O)c1ccc(C#N)cc1 [Compound 207] | > 3 |  |  |  |  |
| CCOc1n[nH]c(-c2ccsc2NC(=O)c2nc3ccccc3s2)n1 [Compound 211] |  |  | A (key: A: >50 μg/mL; B: 50-25 μg/mL; C: <25 μg/mL) |  |  |
| N#Cc1ccccc1NC(=O)c1nc2ccccc2s1 [Compound 215] |  |  | A (key: A: >50 μg/mL; B: 50-25 μg/mL; C: <25 μg/mL) |  |  |

| Compound | MIC (Mtb [1]) [µg/mL] | CC50 (in vitro) [µg/mL] | LC50 (IV) (Vero cells) | MIC (I) (Mtb [2]) | MIC (III) (Mtb [3]) |
| --- | --- | --- | --- | --- | --- |
| CS(=O)(=O)N1CCN(C(=O)c2ccsc2NC(=O)c2nc3ccccc3s2)CC1 [Compound 229] |  |  | A (key: A: >50 μg/mL; B: 50-25 μg/mL; C: <25 μg/mL) |  |  |
| COC(=O)CCCNC(=O)c1ccsc1NC(=O)c1nc2ccccc2s1 [Compound 237] |  |  | B (key: A: >50 μg/mL; B: 50-25 μg/mL; C: <25 μg/mL) |  |  |
| CN1CCC(NC(=O)c2ccsc2NC(=O)c2nc3ccccc3s2)CC1 [Compound 255] |  |  | A (key: A: >50 μg/mL; B: 50-25 μg/mL; C: <25 μg/mL) | C (key: A: <1 μg/mL; B: 1-3 μg/mL; C: >3 μg/mL) | C (key: A: <5 μg/mL; B: 5-25 μg/mL; C: >25 μg/mL) |
| O=C(Nc1sccc1C(=O)N1CCN(C2CC2)CC1)c1nc2ccccc2s1 [Compound 256] |  |  | C (key: A: >50 μg/mL; B: 50-25 μg/mL; C: <25 μg/mL) | C (key: A: <1 μg/mL; B: 1-3 μg/mL; C: >3 μg/mL) | B (key: A: <5 μg/mL; B: 5-25 μg/mL; C: >25 μg/mL) |
| O=C(Nc1sccc1C(=O)N1CCSCC1)c1nc2ccccc2s1 [Compound 261] |  |  | A (key: A: >50 μg/mL; B: 50-25 μg/mL; C: <25 μg/mL) | C (key: A: <1 μg/mL; B: 1-3 μg/mL; C: >3 μg/mL) | C (key: A: <5 μg/mL; B: 5-25 μg/mL; C: >25 μg/mL) |
| O=C(NC(=O)c1ccsc1NC(=O)c1nc2cnccc2s1)OC(c1ccccc1)C(F)(F)F (centres unmarked) [Compound 304] |  |  | B (key: A: >50 μg/mL; B: 50-25 μg/mL; C: <25 μg/mL) | B (key: A: <1 μg/mL; B: 1-3 μg/mL; C: >3 μg/mL) | C (key: A: <5 μg/mL; B: 5-25 μg/mL; C: >25 μg/mL) |
| O=C(NC(=O)c1ccsc1NC(=O)c1cn2ccccc2n1)OC1CCCC1 [Compound 348] |  |  | B (key: A: >50 μg/mL; B: 50-25 μg/mL; C: <25 μg/mL) | C (key: A: <1 μg/mL; B: 1-3 μg/mL; C: >3 μg/mL) | C (key: A: <5 μg/mL; B: 5-25 μg/mL; C: >25 μg/mL) |
| CCOC(=O)NC(=O)c1ccsc1NC(=O)c1ccc2[nH]ncc2c1 [Compound 350] |  |  | B (key: A: >50 μg/mL; B: 50-25 μg/mL; C: <25 μg/mL) | C (key: A: <1 μg/mL; B: 1-3 μg/mL; C: >3 μg/mL) | C (key: A: <5 μg/mL; B: 5-25 μg/mL; C: >25 μg/mL) |
| CC(C)OC(=O)NC(=O)c1ccsc1NC(=O)c1ccc2[nH]ncc2c1 [Compound 351] |  |  | B (key: A: >50 μg/mL; B: 50-25 μg/mL; C: <25 μg/mL) | C (key: A: <1 μg/mL; B: 1-3 μg/mL; C: >3 μg/mL) | C (key: A: <5 μg/mL; B: 5-25 μg/mL; C: >25 μg/mL) |
| CCOC(=O)NC(=O)c1ccsc1NC(=O)c1cnc2cc[nH]c2c1 [Compound 355] |  |  | B (key: A: >50 μg/mL; B: 50-25 μg/mL; C: <25 μg/mL) | C (key: A: <1 μg/mL; B: 1-3 μg/mL; C: >3 μg/mL) | C (key: A: <5 μg/mL; B: 5-25 μg/mL; C: >25 μg/mL) |
| CCOC(=O)NC(=O)c1ccsc1NC(=O)c1n[nH]c2ncccc12 [Compound 358] |  |  | B (key: A: >50 μg/mL; B: 50-25 μg/mL; C: <25 μg/mL) | C (key: A: <1 μg/mL; B: 1-3 μg/mL; C: >3 μg/mL) | C (key: A: <5 μg/mL; B: 5-25 μg/mL; C: >25 μg/mL) |
| CC(C)OC(=O)NC(=O)c1ccsc1NC(=O)c1n[nH]c2ncccc12 [Compound 359] |  |  | B (key: A: >50 μg/mL; B: 50-25 μg/mL; C: <25 μg/mL) | C (key: A: <1 μg/mL; B: 1-3 μg/mL; C: >3 μg/mL) | C (key: A: <5 μg/mL; B: 5-25 μg/mL; C: >25 μg/mL) |
| CCOC(=O)NC(=O)c1ccsc1NC(=O)c1ccc2[nH]nnc2c1 [Compound 363] |  |  | B (key: A: >50 μg/mL; B: 50-25 μg/mL; C: <25 μg/mL) | C (key: A: <1 μg/mL; B: 1-3 μg/mL; C: >3 μg/mL) | C (key: A: <5 μg/mL; B: 5-25 μg/mL; C: >25 μg/mL) |
| CC(C)OC(=O)NC(=O)c1ccsc1NC(=O)c1ccc2[nH]nnc2c1 [Compound 364] |  |  | B (key: A: >50 μg/mL; B: 50-25 μg/mL; C: <25 μg/mL) | B (key: A: <1 μg/mL; B: 1-3 μg/mL; C: >3 μg/mL) | C (key: A: <5 μg/mL; B: 5-25 μg/mL; C: >25 μg/mL) |
| O=C(Nc1sccc1C(=O)NC(=O)N1CCOCC1)c1nc2ccccc2s1 [Compound 385] |  |  | C (key: A: >50 μg/mL; B: 50-25 μg/mL; C: <25 μg/mL) | C (key: A: <1 μg/mL; B: 1-3 μg/mL; C: >3 μg/mL) | C (key: A: <5 μg/mL; B: 5-25 μg/mL; C: >25 μg/mL) |
| CCOC(=O)NC(=O)c1ccsc1NC(=O)c1nc2ccc(NC(=O)CNC(=O)OC(C)(C)C)cc2s1 [Compound 392] |  |  | B (key: A: >50 μg/mL; B: 50-25 μg/mL; C: <25 μg/mL) | B (key: A: <1 μg/mL; B: 1-3 μg/mL; C: >3 μg/mL) | C (key: A: <5 μg/mL; B: 5-25 μg/mL; C: >25 μg/mL) |
